pIC50: −log10 of the molar value.

KDM5B, sequence (Q9UGL1 whole entry): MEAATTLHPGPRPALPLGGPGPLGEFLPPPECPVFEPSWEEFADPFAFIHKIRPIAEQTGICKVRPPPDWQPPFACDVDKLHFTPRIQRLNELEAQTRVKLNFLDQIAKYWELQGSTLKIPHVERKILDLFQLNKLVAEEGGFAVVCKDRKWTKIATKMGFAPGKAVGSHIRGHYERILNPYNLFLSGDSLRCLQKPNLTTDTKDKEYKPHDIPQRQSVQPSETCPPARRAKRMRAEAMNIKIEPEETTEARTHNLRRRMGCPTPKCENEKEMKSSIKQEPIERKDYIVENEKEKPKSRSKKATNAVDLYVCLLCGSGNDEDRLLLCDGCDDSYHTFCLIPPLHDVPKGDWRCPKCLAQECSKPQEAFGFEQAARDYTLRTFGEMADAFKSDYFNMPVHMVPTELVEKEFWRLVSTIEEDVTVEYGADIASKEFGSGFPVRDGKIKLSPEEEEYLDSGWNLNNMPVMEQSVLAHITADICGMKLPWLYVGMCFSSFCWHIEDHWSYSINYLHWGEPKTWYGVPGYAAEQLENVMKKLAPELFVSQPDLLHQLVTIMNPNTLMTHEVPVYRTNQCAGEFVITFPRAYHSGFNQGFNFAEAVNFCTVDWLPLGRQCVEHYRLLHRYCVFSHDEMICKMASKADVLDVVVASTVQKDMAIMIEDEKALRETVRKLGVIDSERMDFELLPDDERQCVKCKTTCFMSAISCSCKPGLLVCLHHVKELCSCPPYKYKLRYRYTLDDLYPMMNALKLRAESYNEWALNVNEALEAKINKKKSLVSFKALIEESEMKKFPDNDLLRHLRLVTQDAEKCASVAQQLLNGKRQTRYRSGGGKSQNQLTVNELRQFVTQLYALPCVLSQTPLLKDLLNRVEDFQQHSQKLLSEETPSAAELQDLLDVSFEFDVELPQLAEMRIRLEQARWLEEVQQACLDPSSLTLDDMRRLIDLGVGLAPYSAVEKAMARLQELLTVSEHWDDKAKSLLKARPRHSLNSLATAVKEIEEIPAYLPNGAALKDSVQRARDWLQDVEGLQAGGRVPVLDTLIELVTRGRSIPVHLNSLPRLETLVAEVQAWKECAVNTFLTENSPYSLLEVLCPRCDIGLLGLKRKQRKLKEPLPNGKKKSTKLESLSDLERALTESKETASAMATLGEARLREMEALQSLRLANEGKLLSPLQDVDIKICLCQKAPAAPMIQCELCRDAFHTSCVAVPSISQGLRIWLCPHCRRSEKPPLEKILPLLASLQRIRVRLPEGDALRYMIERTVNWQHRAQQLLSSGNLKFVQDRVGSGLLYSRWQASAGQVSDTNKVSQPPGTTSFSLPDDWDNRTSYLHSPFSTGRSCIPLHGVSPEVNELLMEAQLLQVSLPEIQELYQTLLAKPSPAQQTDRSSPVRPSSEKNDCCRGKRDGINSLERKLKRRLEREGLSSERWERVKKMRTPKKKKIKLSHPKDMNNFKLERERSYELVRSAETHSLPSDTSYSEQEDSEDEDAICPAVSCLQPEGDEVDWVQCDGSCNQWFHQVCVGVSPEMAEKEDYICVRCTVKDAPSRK

The experiment concerns the target KDM5B (Homo sapiens (Human), UniProt Q9UGL1). In words: KDM5B TR-FRET Enzyme Activity Assay. It is filed as biochemical. The settings on record: LANCE TR-FRET; 5 nM full-length recombinant KDM5B; ten point titration 100000 nM to 5.08 nM. The essentials: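 Full-length KDM5B from Sf21 cells (5 nM) was preincubated 30 min with compound in HEPES pH 7.3 buffer with ascorbate and 2 μM Fe(II). Reaction with 500 nM biotinylated H3K4Me3 peptide and 500 nM α-ketoglutarate ran 60 min. Product was detected by TR-FRET (Eu-anti-H3K4Me1-2/streptavidin-Dylight 650, 665/615 ratio); IC50 came from a 4-parameter fit.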
A general note: Time-resolved FRET reads energy transfer from a long-lived donor to a nearby acceptor.
For the molecule `CC(C)c1c(C2=COCCC2)[nH]c2ncnn2c1=O` [Example 11-30, 5-(3,4-dihydro-2H-pyran-5-yl)-6-(1-methylethyl)[1,2,4]triazolo[1,5-a]pyrimidin-7(4H)-one], the pIC50 is 6.60. In the case of `CC(C)c1c(-c2ccc3c(c2)OCC(=O)N3)[nH]c2ncnn2c1=O` [Example 11-102, 7-[6-(1-methylethyl)-7-oxo-4,7-dihydro[1,2,4]triazolo[1,5-a]pyrimidin-5-yl]-2H-1,4-benzoxazin-3(4H)-one], the pIC50 is 7.75. Take `O=c1cc(C2CCOCC2)[nH]c2ncnn12` [Example 8-20, 5-(tetrahydro-2H-pyran-4-yl)[1,2,4]triazolo[1,5-a]pyrimidin-7(4H)-one]: the negative logarithm of the IC50 (pIC50) was 4.09. In the case of `CC(C)c1c(-c2ccc(NS(C)(=O)=O)cc2)[nH]c2ncnn2c1=O` [Example 11-100, N-{4-[6-(1-methylethyl)-7-oxo-4,7-dihydro[1,2,4]triazolo[1,5-a]pyrimidin-5-yl]phenyl}methanesulfonamide], the pIC50 is 7.70. Then `CC(C)c1c(-c2cnc3[nH]ccc3c2)[nH]c2ncnn2c1=O` [Example 11-68, 6-(1-methylethyl)-5-(1H-pyrrolo[2,3-b]pyridin-5-yl)[1,2,4]triazolo[1,5-a]pyrimidin-7(4H)-one], with 7.70; and `CC(C)c1c(-c2ccc3nc[nH]c3c2)[nH]c2ncnn2c1=O` [Example 11-70, 5-(1H-benzimidazol-6-yl)-6-(1-methylethyl)[1,2,4]triazolo[1,5-a]pyrimidin-7(4H)-one], with 7.87. For `CC(C)c1c(-c2cnn(C(C)(C)CO)c2)[nH]c2ncnn2c1=O` [Example 11-107, 5-[1-(2-hydroxy-1,1-dimethylethyl)-1H-pyrazol-4-yl]-6-(1-methylethyl)[1,2,4]triazolo[1,5-a]pyrimidin-7(4H)-one], the pIC50 was 8.29. In the case of `CC(C)c1c(-c2ccccc2Cl)[nH]c2ncnn2c1=O` [Example 11-65, 5-(2-chlorophenyl)-6-(1-methylethyl)[1,2,4]triazolo[1,5-a]pyrimidin-7(4H)-one], the pIC50 is 5.47. As to `Cc1noc(C)c1-c1[nH]c2ncnn2c(=O)c1C(C)C` [Example 11-34, 5-(3,5-dimethylisoxazol-4-yl)-6-(1-methylethyl)[1,2,4]triazolo[1,5-a]pyrimidin-7(4H)-one], the pIC50 is 4.96. Then `CC(C)c1c(/C=C/c2ccccc2)[nH]c2ncnn2c1=O` [Example 11-55, 6-(1-methylethyl)-5-[(E)-2-phenylethenyl][1,2,4]triazolo[1,5-a]pyrimidin-7(4H)-one], with 8.02; and `O=c1cc(-c2ccccn2)[nH]c2ncnn12` [Example 8-23, 5-pyridin-2-yl[1,2,4]triazolo[1,5-a]pyrimidin-7(4H)-one], with 5.62; and `CC(C)c1c(-c2cc(C(F)(F)F)nn2C)[nH]c2ncnn2c1=O` [Example 11-87, 6-(1-methylethyl)-5-[1-methyl-3-(trifluoromethyl)-1H-pyrazol-5-yl][1,2,4]triazolo[1,5-a]pyrimidin-7(4H)-one], with 5.91. Consider `CC(C)c1c(-c2ccc(C(F)(F)F)nc2)[nH]c2ncnn2c1=O` [Example 11-132, 6-(1-methylethyl)-5-[6-(trifluoromethyl)pyridin-3-yl][1,2,4]triazolo[1,5-a]pyrimidin-7(4H)-one], for which the pIC50 was 7.38. Consider `CC(C)c1c(C2=CCCN(C)C2)[nH]c2ncnn2c1=O` [Example 11-35, 6-(1-methylethyl)-5-(1-methyl-1,2,5,6-tetrahydropyridin-3-yl)[1,2,4]triazolo[1,5-a]pyrimidin-7(4H)-one], for which the pIC50 is 6.30. In the case of `CC(C)c1c(-c2ccc(C#N)cc2)[nH]c2ncnn2c1=O` [Example 11-38, 4-[6-(1-methylethyl)-7-oxo-4,7-dihydro[1,2,4]triazolo[1,5-a]pyrimidin-5-yl]benzonitrile], the pIC50 was 7.67. Consider `CC(C)c1c(-c2cnn(C3CC3)c2)[nH]c2ncnn2c1=O` [Example 11-18, 5-(1-cyclopropyl-1H-pyrazol-4-yl)-6-(1-methylethyl)[1,2,4]triazolo[1,5-a]pyrimidin-7(4H)-one], for which the pIC50 is 8.24.

`CC(C)c1c(-c2ccc3c(cnn3C)c2)[nH]c2ncnn2c1=O` [Example 11-78, 6-(1-methylethyl)-5-(1-methyl-1H-indazol-5-yl)[1,2,4]triazolo[1,5-a]pyrimidin-7(4H)-one]: the pIC50 is 7.98. As to `CC(C)c1c(-c2ccc(-n3cccn3)nc2)[nH]c2ncnn2c1=O` [Example 11-128, 6-(1-methylethyl)-5-[6-(1H-pyrazol-1-yl)pyridin-3-yl][1,2,4]triazolo[1,5-a]pyrimidin-7(4H)-one], the pIC50 was 7.91.

With `CC(C)c1c(-c2cncc(CO)c2)[nH]c2ncnn2c1=O` [Example 12-3, 5-[5-(hydroxymethyl)pyridin-3-yl]-6-(1-methylethyl)[1,2,4]triazolo[1,5-a]pyrimidin-7(4H)-one], the pIC50 is 7.65. Turning to `CC(C)c1c(-c2cnn(CCO)c2)[nH]c2ncnn2c1=O` [Example 11-111, 5-[1-(2-hydroxyethyl)-1H-pyrazol-4-yl]-6-(1-methylethyl)[1,2,4]triazolo[1,5-a]pyrimidin-7(4H)-one], the negative logarithm of the IC50 (pIC50) was 7.93. Turning to `CC(C)c1c(-c2ccnc3ccccc23)[nH]c2ncnn2c1=O` [Example 11-75, 6-(1-methylethyl)-5-quinolin-4-yl[1,2,4]triazolo[1,5-a]pyrimidin-7(4H)-one], the pIC50 was 6.04.

With `CC(C)c1cc(=O)n2ncnc2[nH]1` [Example 8-33, 5-(1-methylethyl)[1,2,4]triazolo[1,5-a]pyrimidin-7(4H)-one], the pIC50 was 4.08.

In the case of `Cc1[nH]c2ncnn2c(=O)c1C(C)C` [Example 8-12, 5-methyl-6-(1-methylethyl)[1,2,4]triazolo[1,5-a]pyrimidin-7(4H)-one], the pIC50 was 6.32. Take `Cc1[nH]c2ncnn2c(=O)c1F` [Example 8-25, 6-fluoro-5-methyl[1,2,4]triazolo[1,5-a]pyrimidin-7(4H)-one]: the pIC50 was 4.75. Next, `COc1cccc(-c2[nH]c3ncnn3c(=O)c2C(C)C)c1` [Example 11-57, 5-(3-methoxyphenyl)-6-(1-methylethyl) [1,2,4]triazolo[1,5-a]pyrimidin-7(4H)-one]: 7.26.

As for `CC(C)c1csc(-c2[nH]c3ncnn3c(=O)c2C(C)C)c1` [Example 11-141, 6-(1-methylethyl)-5-[4-(1-methylethyl)thiophen-2-yl][1,2,4]triazolo[1,5-a]pyrimidin-7(4H)-one], the pIC50 is 7.22. As to `CC(C)n1cc(-c2cc(=O)n3ncnc3[nH]2)cn1` [Example 8-19, 5-[1-(1-methylethyl)-1H-pyrazol-4-yl][1,2,4]triazolo[1,5-a]pyrimidin-7(4H)-one], the pIC50 is 5.81. `CC(C)c1c(-c2cccc(C#N)c2)[nH]c2ncnn2c1=O` [Example 11-37, 3-[6-(1-methylethyl)-7-oxo-4,7-dihydro[1,2,4]triazolo[1,5-a]pyrimidin-5-yl]benzonitrile]: the pIC50 was 7.67. Consider `CCOC(=O)c1[nH]c2ncnn2c(=O)c1C` [Example 8-11, ethyl 6-methyl-7-oxo-4,7-dihydro[1,2,4]triazolo[1,5-a]pyrimidine-5-carboxylate], for which the pIC50 is 5.17. Regarding `CC(C)c1c(-c2ccc(CC#N)cc2)[nH]c2ncnn2c1=O` [Example 11-67, {4-[6-(1-methylethyl)-7-oxo-4,7-dihydro[1,2,4]triazolo[1,5-a]pyrimidin-5-yl]phenyl}acetonitrile], the negative logarithm of the IC50 (pIC50) was 7.74. Regarding `CC(C)c1c(-c2cnn(-c3ccc(F)cc3)c2)[nH]c2ncnn2c1=O` [Example 11-17, 5-[1-(4-fluorophenyl)-1H-pyrazol-4-yl]-6-(1-methylethyl)[1,2,4]triazolo[1,5-a]pyrimidin-7(4H)-one], the pIC50 was 8.19. For the molecule `CC(C)c1c(-c2ccc(C(F)(F)F)cc2)[nH]c2ncnn2c1=O` [Example 11-84, 6-(1-methylethyl)-5-[4-(trifluoromethyl)-phenyl][1,2,4]triazolo[1,5-a]pyrimidin-7(4H)-one], the pIC50 was 7.17. As for `CC(C)c1c(C2=CCC(O)CC2)[nH]c2ncnn2c1=O` (stereo not drawn) [Example 11-36, 5-(4-hydroxycyclohex-1-en-1-yl)-6-(1-methylethyl)[1,2,4]triazolo[1,5-a]pyrimidin-7(4H)-one], the pIC50 was 6.86. `O=c1cc(-c2ccccc2Cl)[nH]c2ncnn12` [Example 8-27, 5-(2-chlorophenyl)[1,2,4]triazolo[1,5-a]pyrimidin-7(4H)-one]: the negative-log IC50 (pIC50) was 4.99. As for `CCOC(=O)c1[nH]c2ncnn2c(=O)c1Cl` [Example 8-10, ethyl 6-chloro-7-oxo-4,7-dihydro[1,2,4]triazolo[1,5-a]pyrimidine-5-carboxylate], the negative-log IC50 (pIC50) was 5.20. Then `CC(C)c1c(-c2cccc(-n3cccn3)c2)[nH]c2ncnn2c1=O` [Example 11-83, 6-(1-methylethyl)-5-[3-(1H-pyrazol-1-yl)phenyl][1,2,4]triazolo[1,5-a]pyrimidin-7(4H)-one], with 7.67; and `CC(C)c1c(-c2ccc(N3CCS(=O)(=O)CC3)cc2)[nH]c2ncnn2c1=O` [Example 11-96, 5-[4-(1,1-dioxidothiomorpholin-4-yl)phenyl]-6-(1-methylethyl)[1,2,4]triazolo[1,5-a]pyrimidin-7(4H)-one], with 7.87; and `CC(C)c1c(-c2cnn(C(C)(C)C)c2)[nH]c2ncnn2c1=O` [Example 11-145, 5-(1-tert-butyl-1H-pyrazol-4-yl)-6-(1-methylethyl)[1,2,4]triazolo[1,5-a]pyrimidin-7(4H)-one], with 8.29. With `CC(C)c1c(-c2ccc(N)cc2)[nH]c2ncnn2c1=O` [Example 11-99, 5-(4-aminophenyl)-6-(1-methylethyl)[1,2,4]triazolo[1,5-a]pyrimidin-7(4H)-one], the pIC50 is 7.48.

In general, pIC50 refers to the IC50 on a negative log10 scale, so that one unit is a factor of ten.

The values are drawn from US10975084B2, “KDM5 inhibitors” (Merck Sharp & Dohme Corp., priority 2016, dated 2021).
